One assay relates to C. ammoniagenes. Description: MIC, resazurin broth microdilution. Format: cell-based, Corynebacterium ammoniagenes. The note with it: C. ammoniagenes.
The subject of another assay is C. glutamicum. Description: MIC, resazurin broth microdilution. Format: cell-based, Corynebacterium glutamicum. The note with it: media BHI. On the technique in general: Alamar Blue is a resazurin reagent that responds to reducing activity.
In another assay the test system is C. diphteriae. Description: MIC, resazurin broth microdilution. Format: cell-based, Corynebacterium diphteriae.
The test system of a further assay is M. tuberculosis. Description: MIC, resazurin broth microdilution. Type of assay: cell-based, Mycobacterium tuberculosis. The note with it: M. tuberculosis, media 7H9G-ADC.
A further assay relates to M. smegmatis. Description: MIC, resazurin broth microdilution. Type of assay: cell-based, Mycobacterium smegmatis. The note with it: media 7H9G-ADC.
In the next assay the test system is S. pneumoniae. Description: MIC, resazurin broth microdilution. Format: cell-based, Streptococcus pneumoniae.
A further assay relates to E. coli. Description: MIC, resazurin broth microdilution. The note with it: media LB. Type of assay: cell-based, Escherichia coli.
Another assay deals with L. monocytogenes. Description: MIC, resazurin broth microdilution. The note with it: media BHI. Format: cell-based, Listeria monocytogenes.
The next assay deals with P. aeruginosa. Description: MIC, resazurin broth microdilution. Format: cell-based, Pseudomonas aeruginosa. The note with it: media MH.
For a further assay, the system named is S. thyphimurium. Description: MIC, resazurin broth microdilution. Type of assay: cell-based, Salmonella thyphimurium. The note with it: media MH.
The subject of a further assay is S. aureus. Description: MIC, resazurin broth microdilution. Format: cell-based, Staphylococcus aureus. The note with it: media MH.
The next assay deals with T1, CaFADS (Corynebacterium ammoniagenes, UniProt Q59263).
T1 construct: made in house; host or cells: Escherichia coli BL21(DE3)
Description: Differential scanning fluorescence (thermal denaturation) binding to CaFADS. The note with it: 2 μM CaFADS, compound up to 250 μM. As for the experimental part: Interaction of compounds with CaFADS was evaluated using fluorescence thermal denaturation, on the bases of the shifts in denaturation midpoints of thermal curves of the protein [65]. Denaturations were performed in a Stratagene Agilent Mx3005p qPCR instrument (Santa Clara, US) following SYPR Orange (ThermoFisher Scientific) emission fluorescence (excitation at 492 nm and emission at 610 nm), which greatly increases when this probe binds to protein hydrophobic regions becoming solvent exposed upon thermal unfolding. Solutions containing 2 μM CaFADS with the studied compound in an increasing 5-250 μM concentration range (2% residual final concentration of DMSO) and 5xSYPR Orange in 20 mM PIPES pH 7.0, 10 mM MgCl2, with a 100 μL total volume were dispensed into 96-well microplates (BRAND 96-well plates pure grade™). After an initial 1 min incubation at 25 °C within the equipment, unfolding curves were registered from 25 to 100 °C at 1 °C·min^−1. Control experiments with CaFADS samples with/without DMSO were routinely performed in each microplate. For those compounds shifting midpoint denaturation temperature, Tm, the dissociation constant, Kd, was predicted by fitting the data to the equation [66] ΔTm/Tm=NRTm0/ΔH0ln(1+[L]/Kd), (2) which estimates the extent of the ligand-induced protein stabilization/destabilization. ΔTm=|Tm-Tm0| with Tm0 and Tm being the midpoint denaturation temperatures in the absence and the presence of ligand, respectively, and ΔH0 the unfolding enthalpy of the protein in the absence of ligand.
(In DSF a fluorescence change marks the thermal transition of the protein.)

From publication PMC7449411, “In silico discovery and biological validation of ligands of FAD synthase, a promising new antimicrobial target” (PLoS Computational Biology, 2020) come the findings set out here.

Each structure is given as a SMILES string.

T1 sequence (Q59263 whole entry): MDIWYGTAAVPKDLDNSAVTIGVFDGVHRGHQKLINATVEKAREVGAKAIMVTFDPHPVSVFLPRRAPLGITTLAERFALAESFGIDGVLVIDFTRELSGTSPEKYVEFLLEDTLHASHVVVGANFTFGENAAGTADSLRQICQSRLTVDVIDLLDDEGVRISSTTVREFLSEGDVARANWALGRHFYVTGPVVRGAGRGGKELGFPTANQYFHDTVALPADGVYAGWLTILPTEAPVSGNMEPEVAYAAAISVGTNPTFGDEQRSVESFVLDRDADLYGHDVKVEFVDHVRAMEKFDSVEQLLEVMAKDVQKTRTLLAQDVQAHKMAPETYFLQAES

As for `O=C(O)CC(CC(=O)Nc1ccc2ccccc2n1)c1ccccc1` (centres unmarked) [Compound C4, 5-oxo-3-phenyl-5-(2-quinolinylamino)pentanoic acid], the MIC (in general, the lowest concentration that inhibits growth of the organism) is above 64 µM in the assay with C. ammoniagenes (media BHI); above 256 µM against C. ammoniagenes (media MH); above 256 µM in the assay with C. ammoniagenes (media MH+DFO); above 256 µM in the assay with C. ammoniagenes (media MH+DIP); above 256 µM in the assay with C. ammoniagenes (media MH+DIP+DFO); above 64 µM in the assay with C. glutamicum. Besides, the MIC is listed as above 64 µM against C. diphteriae (media BHI); above 256 µM against C. diphteriae (media MH); above 256 µM in the assay on M. tuberculosis; above 256 µM against M. smegmatis; above 256 µM against S. pneumoniae (media BHI); above 256 µM in the assay with S. pneumoniae (media MH). The MIC in the assay on E. coli was above 64 µM; against L. monocytogenes, above 64 µM; against P. aeruginosa it was above 256 µM; in the assay on S. thyphimurium, above 256 µM; in the assay on S. aureus it was above 256 µM.
For the compound `N#CC(=Cc1cccc([N+](=O)[O-])c1)c1nn(-c2ccccc2)c(-n2cccc2)c1C#N` [Compound C8, 3-[1-cyano-2-(3-nitrophenyl)vinyl]-1-phenyl-5-(1H-pyrrol-1-yl)-1H-pyrazole-4-carbonitrile], the MIC against C. ammoniagenes (media BHI) was above 64 µM; against C. ammoniagenes (media MH), above 256 µM; in the assay on C. ammoniagenes (media MH+DFO) it was above 256 µM; in the assay with C. ammoniagenes (media MH+DIP), above 256 µM; in the assay on C. ammoniagenes (media MH+DIP+DFO), above 256 µM; against C. glutamicum, above 64 µM. Besides, the minimum inhibitory concentration (MIC) in the assay with C. diphteriae (media BHI) is on record as above 64 µM; against C. diphteriae (media MH) it was above 256 µM; in the assay with M. tuberculosis, above 256 µM; with M. smegmatis, above 256 µM; in the assay with S. pneumoniae (media BHI) it was above 256 µM; against S. pneumoniae (media MH), above 256 µM. Besides, the MIC in the assay on E. coli is given as above 64 µM; in the assay with L. monocytogenes, above 64 µM; with P. aeruginosa, above 256 µM; with S. thyphimurium, above 256 µM; in the assay on S. aureus it was above 256 µM.
Consider `N#Cc1ccc(C=NNC(=O)c2cnn(-c3ccc([N+](=O)[O-])cc3)c2C(F)(F)F)cc1` [Compound C10, N'-[(4-cyanophenyl)methylene]-1-(4-nitrophenyl)-5-(trifluoromethyl)-1H-pyrazole-4-carbohydrazide], for which the MIC is listed as above 64 µM with C. ammoniagenes (media BHI); above 256 µM in the assay with C. ammoniagenes (media MH); above 256 µM in the assay with C. ammoniagenes (media MH+DFO); above 256 µM against C. ammoniagenes (media MH+DIP); above 256 µM in the assay on C. ammoniagenes (media MH+DIP+DFO); above 64 µM with C. glutamicum. Moreover, the minimum inhibitory concentration (MIC) against C. diphteriae (media BHI) is above 64 µM; with C. diphteriae (media MH), above 256 µM; with M. tuberculosis, above 256 µM; against M. smegmatis it was above 256 µM; against S. pneumoniae (media BHI), above 256 µM; against S. pneumoniae (media MH) it was above 256 µM. Further, the minimum inhibitory concentration (MIC) against E. coli is listed as above 64 µM; in the assay on L. monocytogenes it was above 64 µM; in the assay with P. aeruginosa it was above 256 µM; with S. thyphimurium, above 256 µM; in the assay on S. aureus it was above 256 µM.
Take `COc1ccc(NC(=O)CC(CC(=O)O)c2cc(OC)c(OC)c(OC)c2)cc1` (centres unmarked) [Compound C11, 5-(4-methoxyanilino)-5-oxo-3-(3,4,5-trimethoxyphenyl)pentanoic acid]: the MIC with C. ammoniagenes (media BHI) is recorded as above 64 µM; in the assay with C. ammoniagenes (media MH) it was above 256 µM; in the assay with C. ammoniagenes (media MH+DFO) it was above 256 µM; in the assay on C. ammoniagenes (media MH+DIP) it was above 256 µM; in the assay with C. ammoniagenes (media MH+DIP+DFO), above 256 µM; in the assay with C. glutamicum it was above 64 µM. Also, the MIC against C. diphteriae (media BHI) is reported as above 64 µM; against C. diphteriae (media MH), above 256 µM; with M. tuberculosis it was above 256 µM; against M. smegmatis, above 256 µM; in the assay on S. pneumoniae (media BHI), above 256 µM; in the assay on S. pneumoniae (media MH) it was above 256 µM. Further, the minimum inhibitory concentration (MIC) in the assay on E. coli was above 64 µM; with L. monocytogenes, above 64 µM; with P. aeruginosa, above 256 µM; in the assay with S. thyphimurium, above 256 µM; against S. aureus, above 256 µM.
With `CC1=C(C)CC(C(=O)Nc2ccc(Oc3ccc(Cl)cc3)cc2)C(C(=O)O)C1` (centres unmarked) [Compound C12, 6-{[4-(4-chlorophenoxy)anilino]carbonyl}-3,4-dimethylcyclohex-3-ene-1-carboxylic acid], the “Tm shift of CaFADS thermal denaturation” value at CaFADS is recorded as “neither binder nor inhibitor”. Further, the minimal inhibitory concentration (MIC) against C. ammoniagenes (media MH), against C. ammoniagenes (media MH+DFO), in the assay on C. ammoniagenes (media MH+DIP), against C. ammoniagenes (media MH+DIP+DFO), against C. glutamicum and in the assay on C. diphteriae (media MH) was above 256 µM throughout. Also, the minimum inhibitory concentration (MIC) against M. tuberculosis, against E. coli, in the assay with L. monocytogenes, in the assay on P. aeruginosa, in the assay on S. thyphimurium and in the assay with S. aureus was above 256 µM throughout.
As to `O=C(O)C(=Cc1ccc2c(c1)OCO2)NC(=O)c1ccccc1` [Compound C14, 3-(1,3-benzodioxol-5-yl)-2-(benzoylamino)acrylic acid], the MIC in the assay with C. ammoniagenes (media BHI) was above 64 µM; against C. ammoniagenes (media MH), above 256 µM; against C. ammoniagenes (media MH+DFO) it was above 256 µM; with C. ammoniagenes (media MH+DIP) it was above 256 µM; in the assay on C. ammoniagenes (media MH+DIP+DFO), above 256 µM; against C. glutamicum, above 64 µM. In addition, the MIC is listed as above 64 µM in the assay with C. diphteriae (media BHI); above 256 µM in the assay on C. diphteriae (media MH); above 256 µM against M. tuberculosis; above 256 µM in the assay with M. smegmatis; above 256 µM with S. pneumoniae (media BHI); above 256 µM with S. pneumoniae (media MH). The minimal inhibitory concentration (MIC) is above 64 µM against E. coli; above 64 µM in the assay on L. monocytogenes; above 256 µM with P. aeruginosa; above 256 µM against S. thyphimurium; above 256 µM with S. aureus.
Take `NS(=O)(=O)c1ccc(NC(=O)CC(CC(=O)O)c2ccccc2)cc1` (centres unmarked) [Compound C17, 5-[4-(aminosulfonyl)anilino]-5-oxo-3-phenylpentanoic acid]: the minimum inhibitory concentration (MIC) against C. ammoniagenes (media MH), with C. ammoniagenes (media MH+DFO), in the assay on C. ammoniagenes (media MH+DIP), in the assay on C. ammoniagenes (media MH+DIP+DFO), against C. glutamicum and against C. diphteriae (media MH) was above 256 µM in each case. In addition, the MIC in the assay with M. tuberculosis, in the assay on E. coli, against L. monocytogenes, in the assay on P. aeruginosa, with S. thyphimurium and against S. aureus was above 256 µM throughout.
Turning to `Cc1ccc(OCC2SCCN2C(=O)c2c(-c3c(Cl)cccc3Cl)noc2C)c([N+](=O)[O-])c1` (centres unmarked) [Compound C25, [3-(2,6-dichlorophenyl)-5-methylisoxazol-4-yl]{2-[(4-methyl-2-nitrophenoxy)methyl]-1,3-thiazolan-3-yl}methanone], the minimal inhibitory concentration (MIC) in the assay with C. ammoniagenes (media MH), in the assay with C. ammoniagenes (media MH+DFO), with C. ammoniagenes (media MH+DIP), in the assay with C. ammoniagenes (media MH+DIP+DFO), in the assay with C. glutamicum and against C. diphteriae (media MH) was above 256 µM throughout. Besides, the MIC against M. tuberculosis, with E. coli, in the assay on L. monocytogenes, with P. aeruginosa, against S. thyphimurium and in the assay with S. aureus was above 256 µM in each case.
